Data taken from article PMC2997755 (Clinical cancer research : an official journal of the …, 2009).
Where two headings read alike, the source gives them in different places.

Tests used:
[1] = clinical; format: in vivo; conditions: for AUC(0-inf) / AUC(0-t) / clearance / Cmax / half-life: human, plasma
[2] = human, in vivo
[3] = cited from earlier work
[4] = Phase I safety and tolerability: DLTs, MTD, adverse events; conditions: sequential schedule dose level -1b; days 6-12, with decitabine 10 mg/m^2/day on days 1-5
[5] = Vorinostat serum pharmacokinetics, cycle 1; format: in vivo; conditions: for CL/F / AUC(0-inf) / AUC(0-t) / Cmax / half-life: mean (St dev); for AUC(0-inf) / AUC(0-t) / Cmax / half-life: human, serum, oral; for AUC(0-inf): AUCinf; for AUC(0-t): AUCt
[6] = 100 mg, Sequential schedule, 100 mg BID, day 9 of cycle 1
[7] = 200 mg, Concurrent schedule, 200 mg BID, day 4 of cycle 1
[8] = 200 mg, Sequential schedule, 200 mg BID, day 9 of cycle 1
[9] = 200 mg, Sequential schedule, 200 mg TID, day 9 of cycle 1
[10] = 200 mg, Concurrent schedule, 200 mg TID, day 4 of cycle 1

Question: Which “Pharmacokinetic parameters on day 1 versus day 5 within the same dose level” value ([1]; either schedule) does the source give for `Nc1ncn([C@H]2C[C@H](O)[C@@H](CO)O2)c(=O)n1` [decitabine, 5-aza-2'-deoxycytidine] here?
Answer: The value was “No significant differences”.

Question: What about the AUC(0-inf) ([1]; intravenous, 10 mg/m2, AUCinf, Concurrent schedule, 10 mg/m^2, Day 1, mean (St dev)) of the same compound?
Answer: Its AUC(0-inf) is 77.6 ng·h/mL.

Question: And the AUC(0-inf) ([1]; intravenous, 10 mg/m2, AUCinf, Concurrent schedule, 10 mg/m^2, Day 5, mean (St dev))?
Answer: The AUC(0-inf) was 57.4 ng·h/mL.

Question: And the AUC(0-inf) ([1]; intravenous, 10 mg/m2, AUCinf, Sequential schedule, 10 mg/m^2, Day 1, mean (St dev))?
Answer: The AUC(0-inf) was 48.4 ng·h/mL.

Question: What about the AUC(0-inf) ([1]; intravenous, 10 mg/m2, AUCinf, Sequential schedule, 10 mg/m^2, Day 5, mean (St dev)) of the same compound?
Answer: The AUC(0-inf) was 57.8 ng·h/mL.

Question: And the AUC(0-t) ([1]; intravenous, 10 mg/m2, AUCt, Concurrent schedule, 10 mg/m^2, Day 1, mean (St dev))?
Answer: The AUC(0-t) was 75.8 ng·h/mL.

Question: And the AUC(0-t) ([1]; intravenous, 10 mg/m2, AUCt, Concurrent schedule, 10 mg/m^2, Day 5, mean (St dev))?
Answer: The AUC(0-t) was 56.3 ng·h/mL.

Question: What about the AUC(0-t) ([1]; intravenous, 10 mg/m2, AUCt, Sequential schedule, 10 mg/m^2, Day 5, mean (St dev)) of the same compound?
Answer: Its AUC(0-t) is 55.8 ng·h/mL.

Question: And the clearance ([1]; intravenous, 10 mg/m2, CL, Concurrent schedule, 10 mg/m^2, Day 1, mean (St dev))?
Answer: The clearance was 4670 mL/min.

Question: What about the clearance ([1]; intravenous, 10 mg/m2, CL, Concurrent schedule, 10 mg/m^2, Day 5, mean (St dev)) of the same compound?
Answer: The clearance was 5570 mL/min.

Question: And the clearance ([1]; intravenous, 10 mg/m2, CL, Sequential schedule, 10 mg/m^2, Day 1, mean (St dev))?
Answer: The clearance was 7600 mL/min.

Question: What about the clearance ([1]; intravenous, 10 mg/m2, CL, Sequential schedule, 10 mg/m^2, Day 5, mean (St dev)) of the same compound?
Answer: The clearance was 6130 mL/min.

Question: What about the Cmax ([1]; intravenous, 10 mg/m2, Cmax, Concurrent schedule, 10 mg/m^2, Day 1, mean (St dev)) of the same compound?
Answer: Its Cmax is 88.6 ng/mL.

Question: And the Cmax ([1]; intravenous, 10 mg/m2, Cmax, Concurrent schedule, 10 mg/m^2, Day 5, mean (St dev))?
Answer: Its Cmax is 62.9 ng/mL.

Question: And the Cmax ([1]; intravenous, 10 mg/m2, Cmax, Sequential schedule, 10 mg/m^2, Day 1, mean (St dev))?
Answer: Its Cmax is 57.5 ng/mL.

Question: What about the Cmax ([1]; intravenous, 10 mg/m2, Cmax, Sequential schedule, 10 mg/m^2, Day 5, mean (St dev)) of the same compound?
Answer: The Cmax was 67.5 ng/mL.

Question: What about the half-life ([1]; intravenous, 10 mg/m2, t1/2, Concurrent schedule, 10 mg/m^2, Day 1, mean (St dev)) of the same compound?
Answer: Its half-life is 16.2 min.

Question: What about the half-life ([1]; intravenous, 10 mg/m2, t1/2, Concurrent schedule, 10 mg/m^2, Day 5, mean (St dev)) of the same compound?
Answer: The half-life was 16.2 min.

Question: What about the half-life ([1]; intravenous, 10 mg/m2, t1/2, Sequential schedule, 10 mg/m^2, Day 1, mean (St dev)) of the same compound?
Answer: Its half-life is 20.4 min.

Question: What about the half-life ([1]; intravenous, 10 mg/m2, t1/2, Sequential schedule, 10 mg/m^2, Day 5, mean (St dev)) of the same compound?
Answer: Its half-life is 22.8 min.

Question: What about the AUC(0-inf) ([1]; intravenous, 15 mg/m2, AUCinf, Sequential schedule, 15 mg/m^2, Day 1, mean (St dev)) of the same compound?
Answer: The AUC(0-inf) was 116 ng·h/mL.

Question: What about the AUC(0-inf) ([1]; intravenous, 15 mg/m2, AUCinf, Sequential schedule, 15 mg/m^2, Day 5, mean (St dev)) of the same compound?
Answer: The AUC(0-inf) was 116 ng·h/mL.

Question: And the AUC(0-t) ([1]; intravenous, 15 mg/m2, AUCt, Sequential schedule, 15 mg/m^2, Day 1, mean (St dev))?
Answer: The AUC(0-t) was 112 ng·h/mL.

Question: And the AUC(0-t) ([1]; intravenous, 15 mg/m2, AUCt, Sequential schedule, 15 mg/m^2, Day 5, mean (St dev))?
Answer: Its AUC(0-t) is 114 ng·h/mL.

Question: What about the clearance ([1]; intravenous, 15 mg/m2, CL, Sequential schedule, 15 mg/m^2, Day 1, mean (St dev)) of the same compound?
Answer: Its clearance is 5670 mL/min.

Question: What about the clearance ([1]; intravenous, 15 mg/m2, CL, Sequential schedule, 15 mg/m^2, Day 5, mean (St dev)) of the same compound?
Answer: The clearance was 3930 mL/min.

Question: What about the Cmax ([1]; intravenous, 15 mg/m2, Cmax, Sequential schedule, 15 mg/m^2, Day 1, mean (St dev)) of the same compound?
Answer: The Cmax was 129 ng/mL.

Question: What about the Cmax ([1]; intravenous, 15 mg/m2, Cmax, Sequential schedule, 15 mg/m^2, Day 5, mean (St dev)) of the same compound?
Answer: Its Cmax is 142 ng/mL.

Question: What about the half-life ([1]; intravenous, 15 mg/m2, t1/2, Sequential schedule, 15 mg/m^2, Day 1, mean (St dev)) of the same compound?
Answer: The half-life was 22.8 min.

Question: And the half-life ([1]; intravenous, 15 mg/m2, t1/2, Sequential schedule, 15 mg/m^2, Day 5, mean (St dev))?
Answer: Its half-life is 19.8 min.

Question: And the AUC(0-inf) ([1]; intravenous, 20 mg/m2, AUCinf, Sequential schedule, 20 mg/m^2, Day 1, mean (St dev))?
Answer: Its AUC(0-inf) is 119 ng·h/mL.

Question: And the AUC(0-inf) ([1]; intravenous, 20 mg/m2, AUCinf, Sequential schedule, 20 mg/m^2, Day 5, mean (St dev))?
Answer: Its AUC(0-inf) is 165 ng·h/mL.

Question: And the AUC(0-t) ([1]; intravenous, 20 mg/m2, AUCt, Sequential schedule, 20 mg/m^2, Day 1, mean (St dev))?
Answer: The AUC(0-t) was 115 ng·h/mL.

Question: And the AUC(0-t) ([1]; intravenous, 20 mg/m2, AUCt, Sequential schedule, 20 mg/m^2, Day 5, mean (St dev))?
Answer: Its AUC(0-t) is 161 ng·h/mL.

Question: And the clearance ([1]; intravenous, 20 mg/m2, CL, Sequential schedule, 20 mg/m^2, Day 1, mean (St dev))?
Answer: Its clearance is 5280 mL/min.

Question: And the clearance ([1]; intravenous, 20 mg/m2, CL, Sequential schedule, 20 mg/m^2, Day 5, mean (St dev))?
Answer: The clearance was 3920 mL/min.

Question: What about the Cmax ([1]; intravenous, 20 mg/m2, Cmax, Sequential schedule, 20 mg/m^2, Day 1, mean (St dev)) of the same compound?
Answer: Its Cmax is 135 ng/mL.

Question: And the Cmax ([1]; intravenous, 20 mg/m2, Cmax, Sequential schedule, 20 mg/m^2, Day 5, mean (St dev))?
Answer: Its Cmax is 198 ng/mL.

Question: And the half-life ([1]; intravenous, 20 mg/m2, t1/2, Sequential schedule, 20 mg/m^2, Day 1, mean (St dev))?
Answer: Its half-life is 21.6 min.

Question: And the half-life ([1]; intravenous, 20 mg/m2, t1/2, Sequential schedule, 20 mg/m^2, Day 5, mean (St dev))?
Answer: Its half-life is 25.2 min.

Question: And the half-life ([1]; iv, half-life, patients, 1-hour intravenous infusion)?
Answer: Its half-life is roughly 20 min.

Question: What about the “Dose proportionality of Cmax and AUC” value ([1]; sequential schedule, increasing doses of decitabine) of the same compound?
Answer: The value was “did not produce dose proportional increases”.

Question: What about the “RP2D (recommended phase II dose)” value [2] of the same compound?
Answer: Its value is 10 mg/m^2/day.

Question: For `O=C(CCCCCCC(=O)Nc1ccccc1)NO` [vorinostat, suberoylanilide hydroxamic acid], which “maximum tolerated dose, monotherapy” value ([3]; patients with hematologic malignancies) is on record?
Answer: The value was 250 mg orally thrice a day for 14 days every 21 days.

Question: And the “maximum tolerated dose, monotherapy” value ([3]; patients with solid tumors)?
Answer: Its value is 200 mg orally twice a day continuously.

Question: And the “RP2D (recommended phase II dose)” value [4]?
Answer: Its value is 200 mg twice daily.

Question: What about the “Cmax, AUCinf and AUCt, concurrent versus sequential schedule” value ([5]; 200mg BID dose level, p 0.09, 0.004 and 0.0005) of the same compound?
Answer: The value was “lower in the concurrent schedule”.

Question: What about the CL/F ([5]; Concurrent schedule, 200 mg BID, day 4 of cycle 1) of the same compound?
Answer: Its CL/F is 5.3 (2.3) ml/min.

Question: What about the CL/F ([5]; Sequential schedule, 100 mg BID, day 9 of cycle 1) of the same compound?
Answer: The CL/F was 4.3(2.3) ml/min.

Question: What about the CL/F ([5]; Sequential schedule, 200 mg BID, day 9 of cycle 1) of the same compound?
Answer: Its CL/F is 3(0.7) ml/min.

Question: What about the CL/F ([5]; Sequential schedule, 200 mg TID, day 9 of cycle 1) of the same compound?
Answer: Its CL/F is 4(3.7) ml/min.

Question: And the AUC(0-inf) [5, 6]?
Answer: Its AUC(0-inf) is 446 ng·h/mL.

Question: And the AUC(0-t) [5, 6]?
Answer: Its AUC(0-t) is 424 ng·h/mL.

Question: What about the Cmax [5, 6] of the same compound?
Answer: The Cmax was 165 ng/mL.

Question: What about the half-life ([5]; 100 mg, t1/2, Sequential schedule, 100 mg BID, day 9 of cycle 1) of the same compound?
Answer: Its half-life is 83.4 min.

Question: And the AUC(0-inf) [5, 7]?
Answer: The AUC(0-inf) was 708 ng·h/mL.

Question: What about the AUC(0-inf) [5, 8] of the same compound?
Answer: Its AUC(0-inf) is 1180 ng·h/mL.

Question: And the AUC(0-inf) [5, 9]?
Answer: The AUC(0-inf) was 1350 ng·h/mL.

Question: What about the AUC(0-t) [5, 7] of the same compound?
Answer: The AUC(0-t) was 573 ng·h/mL.

Question: And the AUC(0-t) [5, 10]?
Answer: The AUC(0-t) was 883 ng·h/mL.

Question: What about the AUC(0-t) [5, 8] of the same compound?
Answer: Its AUC(0-t) is 1020 ng·h/mL.

Question: What about the AUC(0-t) [5, 9] of the same compound?
Answer: Its AUC(0-t) is 1090 ng·h/mL.

Question: And the Cmax [5, 7]?
Answer: The Cmax was 214 ng/mL.

Question: What about the Cmax [5, 10] of the same compound?
Answer: Its Cmax is 227 ng/mL.

Question: And the Cmax [5, 8]?
Answer: The Cmax was 313 ng/mL.

Question: And the half-life ([5]; 200 mg, t1/2, Concurrent schedule, 200 mg BID, day 4 of cycle 1)?
Answer: Its half-life is 143 min.

Question: What about the half-life ([5]; 200 mg, t1/2, Sequential schedule, 200 mg BID, day 9 of cycle 1) of the same compound?
Answer: The half-life was 153 min.

Question: And the half-life ([5]; 200 mg, t1/2, Sequential schedule, 200 mg TID, day 9 of cycle 1)?
Answer: The half-life was 103 min.

Question: And the “Dose proportionality of AUC and Cmax after a single administration” value ([5]; sequential schedule, dose increased from 100 mg to 200 mg)?
Answer: Its value is “increased proportionaly”.
